In patent US9290551B2, “Compounds for treating papilloma virus infection” (NanoVir, LLC, priority 2012, dated 2016):

Experiments:
Assay type in all cases: cell-based, Human papilloma virus
[1] = tested on: HPV 16; assay: HPV 16 episome DNA levels in W12E cells by Q-PCR (Taqman); conditions: for IC50: effective (pseudo) IC50, 50% reduction in HPV DNA relative to vehicle (0.1% DMSO), read-out: HPV-16 IC50
Protocol: Cells maintaining HPV 16 DNA were cultured for 72 hours in the presence of cidofovir, interferon γ or polyamide. Viral DNA was then quantified using real-time PCR and compared to vehicle (DMSO)-treated control cultures.
Compounds were initially tested for effects on HPV 16 episome DNA levels in W12E cells by Q-PCR (Taqman™) over 3 concentration ranges (0.1, 1 and 10 μM). W12E cells are a cervical keratinocyte cell line originally identified by M. Stanley (Cambridge University), and later optimized and provided by P. Lambert (U. of Wisconsin). […] In all cases (initial tests and follow-up IC50 tests), dose testing was performed in triplicate. […] Furthermore, all experiments were conducted in triplicate, multiple times. The data were then combined, pseudo or effective IC50 values calculated, and variance determined to reveal the fit of the data to the model and its reliability.
Keratinocytes that maintain HPV 16 episomes were treated with increasing concentrations of polyamides.

[2] = tested on: HPV18; assay: HPV18 DNA levels in keratinocytes by real-time PCR; conditions: effective (pseudo) IC50
Protocol: (§1) Human keratinocytes, including those maintaining HPV episomes, are cultured on mitomycin C-treated J2 3T3 cells in media containing three parts Dulbecco's modified Eagle medium (DMEM) and one part F12 media, our modification of published methods (Rheinwald and Green, 1975). Media (E Media) is supplemented with 0.4 μg/mL hydrocortisone, 10 ng/mL cholera toxin, 5 μg/mL insulin, 24 μg/mL adenine, 5 μg/mL transferrin, […] (T3), 10 ng/mL epidermal growth factor (EGF), 1% penicillin-streptomycin, and 5% fetal bovine serum (FBS). All cells are passaged at 70% confluency at a split ratio of 1:5.
(§2) Polyamides for HPV 18 are dissolved at 10 mM in 100% DMSO and diluted with H2O to 1 mM. Polyamides are added to cells in E media at final concentrations of 0.1-10 μM, with final DMSO concentrations of 0.1%. As controls, cells are incubated with normal E media and E media containing the “vehicle” 0.1% DMSO. The HPV DNA levels are then quantified according to previously published procedures (Garner-Hamrick and Fisher, Virology, 301, 334-41, 2002). After incubation, cells are harvested from the plates by either trypsinization or direct lysis with proteinase K digestion buffer (PK buffer: 100 mM NaCl, 10 mM Tris pH 8, 25 mM EDTA, 0.5% SDS, 0.1 mg/mL proteinase K). Trypsinized cells are counted on a hemocytometer and pelleted by centrifugation. Episomal HPV is isolated by the Hirt method (Hirt, 1967) and cell pellets are lysed in 0.6% SDS with 10 mM EDTA. NaCl is next added to a final concentration of 1 M. Following an overnight incubation at 4° C., precipitates containing the chromosomal DNA are spun down and episomal DNA precipitated by the addition of isopropanol. Cells lysed directly in PK buffer are transferred to microfuge tubes and incubated at 50° C. for 2 h. Lysates are then extracted with phenol/chloroform/isoamyl alcohol and spun through a phase lock gel (Eppendorf, Hamburg, Germany). Total DNA is then precipitated with 0.3 M NaOAc and 2.5 vol. ethanol and resuspended in Tris-EDTA (TE) buffer.
Viral DNA levels are next quantified according to variations on our previously published methods (Garner-Hamrick and Fisher, Virology, 301, 334-41, 2002). Quantitative PCR is performed using Real-Time PCR technology on an ABI PRISM 7700 Sequence Detector. All primers and probes were designed using Primer Express 1.0 (ABI). For HPV 18, PCR primer-probe sets were designed within the L1 gene:
(§3) All primers and probes are synthesized and HPLC purified by Applied Biosystems (Foster City, Calif.). The HPV probes are labeled with the 5′ reporter dye FAM (6-carboxy-fluorescein) and the 3′ quencher dye TAMRA (6-carboxytetramethyl-rhodamine). A standard curve is generated using a range of 10^8 to 10 copies/reaction of cloned, genomic HPV31 or HPV18 DNA using the following formula: (1.82×10^15)(μg/μL stock DNA)/(length in base pairs)(2)=copies/μL stock DNA. PCR reactions contain final concentrations of 1× Universal Master Mix (PE Applied Biosystems), 200 nM of each primer, and 250 nM probe (PE Applied Biosystems) in a reaction volume of 25 μL. Each Hirt-isolated DNA sample is analyzed in triplicate reactions for episomal HPV. Copies/reaction are determined from the standard curve, and copies/cell determined according to the following formula: (copies/reaction)×(DNA dilution)/(total # cells)=copies/cell.

[3] = tested on: HPV31; assay: HPV31 DNA levels in keratinocytes by real-time PCR; conditions: effective (pseudo) IC50
Protocol: as §1, §2
HPV31 primers-probe sets for PCR were also designed within the L1 gene:
as §3

Compound	IC50 [1] [µM]	IC50 [2] [µM]	IC50 [3] [µM]	effect on absolute HPV 16 DNA levels ([1]; higher doses, in some experiments, FIG. 3)
CC(=O)N[C@H](CCNC(=O)c1cc(NC(=O)c2cc(NC(=O)CCNC(=O)c3nc(NC(=O)c4cc(NC(=O)c5cc(NC(=O)CCNC(=O)c6cc(NC(=O)c7cc(NC(=O)c8nccn8C)cn7C)cn6C)cn5C)cn4C)cn3C)cn2C)cn1C)C(=O)Nc1cc(C(=O)Nc2cc(C(=O)NCCC(=O)Nc3cc(C(=O)Nc4cc(C(=O)Nc5cc(C(=O)NCCC(=O)Nc6cc(C(=O)Nc7cc(C(=O)Nc8cc(C(=O)NCCC(=O)NCCCN(C)C)n(C)c8)n(C)c7)n(C)c6)n(C)c5)n(C)c4)n(C)c3)n(C)c2)n(C)c1 [Polyamide 1068, ImPPβPPIβPPγNHAcPPβPPPβPPPβDp]	0.1 to 1	0.1 to 1	0.1 to 1	–
ImPPPβPPβPPPγNH2PPPβPPPβPPPβDp [Polyamide 1003]	0.1 to 1	0.1 to 1	0.1 to 1	–
CN(CCCN)CCCNC(=O)CCNC(=O)c1cc(NC(=O)c2cc(NC(=O)c3cc(NC(=O)CCNC(=O)c4cc(NC(=O)c5cc(NC(=O)c6cc(NC(=O)CCNC(=O)c7cc(NC(=O)c8cc(NC(=O)c9cc(NC(=O)CCCNC(=O)c%10cc(NC(=O)c%11cc(NC(=O)CCNC(=O)c%12cc(NC(=O)c%13cc(NC(=O)c%14cc(NC(=O)CCNC(=O)c%15cc(NC(=O)c%16cc(NC(=O)c%17cc(NC(=O)c%18nccn%18C)cn%17C)cn%16C)cn%15C)cn%14C)cn%13C)cn%12C)cn%11C)cn%10C)cn9C)cn8C)cn7C)cn6C)cn5C)cn4C)cn3C)cn2C)cn1C [Polyamide 1048, ImPPPβPPPβPPγPPPβPPPβPPPβTa]	0.1 to 1	0.1 to 1	0.1 to 1	–
CN(CCCN)CCCNC(=O)CCNC(=O)CCNC(=O)c1cc(NC(=O)c2cc(NC(=O)c3cc(NC(=O)CCNC(=O)c4cc(NC(=O)c5cc(NC(=O)c6cc(NC(=O)CCCNC(=O)c7cc(NC(=O)c8cc(NC(=O)c9cc(NC(=O)CCNC(=O)c%10cc(NC(=O)c%11cc(NC(=O)c%12cc(NC(=O)c%13nccn%13C)cn%12C)cn%11C)cn%10C)cn9C)cn8C)cn7C)cn6C)cn5C)cn4C)cn3C)cn2C)cn1C [Polyamide 1031, ImPPPβPPPγPPPβPPPββTa]	0.1 to 1	0.1 to 1	0.1 to 1	nearly complete elimination of detectable viral DNA
CN(C)CCCNC(=O)CCNC(=O)c1cc(NC(=O)c2cc(NC(=O)c3cc(NC(=O)CCNC(=O)c4cc(NC(=O)c5cc(NC(=O)c6cc(NC(=O)CCNC(=O)c7cc(NC(=O)c8cc(NC(=O)CCCNC(=O)c9cc(NC(=O)c%10cc(NC(=O)CCNC(=O)c%11nc(NC(=O)c%12cc(NC(=O)c%13cc(NC(=O)CCNC(=O)c%14cc(NC(=O)c%15cc(NC(=O)c%16nccn%16C)cn%15C)cn%14C)cn%13C)cn%12C)cn%11C)cn%10C)cn9C)cn8C)cn7C)cn6C)cn5C)cn4C)cn3C)cn2C)cn1C [Polyamide 1040, ImPPβPPIβPPγPPβPPPβPPPβDp]	0.1 to 1	0.1 to 1	0.1 to 1	–
ImPPβPPPγNH2PPβPPPPβDp [Polyamide 1024]	> 1	≥ 1	0.1 to 1	–
CN(CCCN)CCCNC(=O)c1cc(NC(=O)c2cc(NC(=O)c3cc(NC(=O)c4cc(NC(=O)c5cc(NC(=O)CCNC(=O)c6cc(NC(=O)c7cc(NC(=O)CCCNC(=O)c8cc(NC(=O)c9cc(NC(=O)c%10cc(NC(=O)CCNC(=O)c%11cc(NC(=O)c%12cc(NC(=O)c%13nccn%13C)cn%12C)cn%11C)cn%10C)cn9C)cn8C)cn7C)cn6C)cn5C)cn4C)cn3C)cn2C)cn1C [Polyamide 1069, ImPPβPPPγPPβPPPPPTa]	0.1 to 1	≥ 1	0.1 to 1	–
CN(CCCN)CCCNC(=O)CCNC(=O)c1cc(NC(=O)c2cc(NC(=O)c3cc(NC(=O)CCNC(=O)c4cc(NC(=O)c5cc(NC(=O)c6cc(NC(=O)CCNC(=O)c7cc(NC(=O)c8cc(NC(=O)[C@@H](CCN)NC(=O)c9cc(NC(=O)c%10cc(NC(=O)CCNC(=O)c%11nc(NC(=O)c%12cc(NC(=O)c%13cc(NC(=O)CCNC(=O)c%14cc(NC(=O)c%15cc(NC(=O)c%16nccn%16C)cn%15C)cn%14C)cn%13C)cn%12C)cn%11C)cn%10C)cn9C)cn8C)cn7C)cn6C)cn5C)cn4C)cn3C)cn2C)cn1C [Polyamide 1049, ImPPβPPIβPPγNH2PPβPPPβPPPβTa]	0.1 to 1	0.1 to 1	≥ 1	–
